Test results from patent publication US10231954B2, “Neurodegenerative therapies” (LYTIX BIOPHARMA AS, priority 2014, dated 2019).
Like-named read-outs stand apart in the source and are kept apart here.

Experiments:
Format in all cases: biochemical
[1] = molecular target: T1, Aurora A (Homo sapiens, UniProt O14965); assay: Kinase profiling Aurora A; settings: for remaining activity at 100 µM: read-out: residual kinase activity, Aurora A
T1 sequence (O14965 1-403): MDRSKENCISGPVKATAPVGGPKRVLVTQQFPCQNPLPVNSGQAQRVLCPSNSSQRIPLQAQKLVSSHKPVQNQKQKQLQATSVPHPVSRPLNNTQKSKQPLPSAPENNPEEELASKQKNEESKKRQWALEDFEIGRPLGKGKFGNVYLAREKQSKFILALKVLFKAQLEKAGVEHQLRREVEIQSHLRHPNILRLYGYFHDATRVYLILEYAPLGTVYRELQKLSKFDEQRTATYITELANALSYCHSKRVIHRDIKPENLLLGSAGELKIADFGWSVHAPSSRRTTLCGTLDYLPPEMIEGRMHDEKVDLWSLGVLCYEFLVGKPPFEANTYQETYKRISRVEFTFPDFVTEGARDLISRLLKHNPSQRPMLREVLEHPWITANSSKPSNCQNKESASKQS
Source text: (§1) Any value less that 25 is considered to be highly significant inhibition.

[2] = molecular target: HIPK1 (Homo sapiens, UniProt Q86Z02); assay: Kinase profiling HIPK1; settings: for remaining activity at 100 µM: read-out: residual kinase activity, HIPK1
Chain of HIPK1 (Q86Z02 whole entry, species assumed): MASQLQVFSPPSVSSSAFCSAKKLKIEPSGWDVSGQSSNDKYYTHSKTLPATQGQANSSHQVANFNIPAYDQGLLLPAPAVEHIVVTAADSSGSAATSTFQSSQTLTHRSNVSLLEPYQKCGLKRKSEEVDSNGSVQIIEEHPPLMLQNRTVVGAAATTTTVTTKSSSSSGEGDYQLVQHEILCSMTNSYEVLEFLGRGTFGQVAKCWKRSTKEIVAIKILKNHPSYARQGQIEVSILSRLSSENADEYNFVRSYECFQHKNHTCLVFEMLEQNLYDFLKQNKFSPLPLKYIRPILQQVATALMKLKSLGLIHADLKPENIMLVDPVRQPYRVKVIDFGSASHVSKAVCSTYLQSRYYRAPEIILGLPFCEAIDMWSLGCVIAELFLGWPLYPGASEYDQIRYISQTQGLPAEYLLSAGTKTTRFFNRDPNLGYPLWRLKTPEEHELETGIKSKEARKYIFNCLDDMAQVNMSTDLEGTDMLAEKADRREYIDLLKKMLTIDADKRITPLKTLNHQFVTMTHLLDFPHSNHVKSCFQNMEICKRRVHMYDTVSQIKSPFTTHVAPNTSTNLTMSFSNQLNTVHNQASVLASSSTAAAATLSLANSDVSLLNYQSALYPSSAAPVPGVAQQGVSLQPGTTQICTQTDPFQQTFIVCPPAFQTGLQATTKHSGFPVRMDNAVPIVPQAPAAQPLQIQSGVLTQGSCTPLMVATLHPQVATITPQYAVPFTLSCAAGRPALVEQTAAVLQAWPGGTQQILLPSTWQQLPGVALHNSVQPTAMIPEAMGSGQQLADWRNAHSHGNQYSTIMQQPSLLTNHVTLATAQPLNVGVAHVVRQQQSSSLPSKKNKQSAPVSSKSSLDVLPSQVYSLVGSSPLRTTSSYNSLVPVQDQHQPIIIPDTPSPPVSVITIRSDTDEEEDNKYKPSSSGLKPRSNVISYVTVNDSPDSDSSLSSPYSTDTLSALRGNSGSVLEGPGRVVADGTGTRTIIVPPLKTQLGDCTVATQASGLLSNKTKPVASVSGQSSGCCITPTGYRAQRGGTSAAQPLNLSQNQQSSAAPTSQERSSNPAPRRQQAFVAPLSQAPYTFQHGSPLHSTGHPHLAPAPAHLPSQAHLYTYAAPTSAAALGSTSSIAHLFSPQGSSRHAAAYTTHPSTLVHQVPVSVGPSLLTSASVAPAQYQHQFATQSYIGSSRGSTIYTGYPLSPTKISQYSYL
Source text: as §1

[3] = molecular target: TTBK1 (Homo sapiens, UniProt Q5TCY1); assay: Kinase profiling TTBK1; settings: for remaining activity at 100 µM: read-out: residual kinase activity, TTBK1
Chain of TTBK1 (Q5TCY1 whole entry, species assumed): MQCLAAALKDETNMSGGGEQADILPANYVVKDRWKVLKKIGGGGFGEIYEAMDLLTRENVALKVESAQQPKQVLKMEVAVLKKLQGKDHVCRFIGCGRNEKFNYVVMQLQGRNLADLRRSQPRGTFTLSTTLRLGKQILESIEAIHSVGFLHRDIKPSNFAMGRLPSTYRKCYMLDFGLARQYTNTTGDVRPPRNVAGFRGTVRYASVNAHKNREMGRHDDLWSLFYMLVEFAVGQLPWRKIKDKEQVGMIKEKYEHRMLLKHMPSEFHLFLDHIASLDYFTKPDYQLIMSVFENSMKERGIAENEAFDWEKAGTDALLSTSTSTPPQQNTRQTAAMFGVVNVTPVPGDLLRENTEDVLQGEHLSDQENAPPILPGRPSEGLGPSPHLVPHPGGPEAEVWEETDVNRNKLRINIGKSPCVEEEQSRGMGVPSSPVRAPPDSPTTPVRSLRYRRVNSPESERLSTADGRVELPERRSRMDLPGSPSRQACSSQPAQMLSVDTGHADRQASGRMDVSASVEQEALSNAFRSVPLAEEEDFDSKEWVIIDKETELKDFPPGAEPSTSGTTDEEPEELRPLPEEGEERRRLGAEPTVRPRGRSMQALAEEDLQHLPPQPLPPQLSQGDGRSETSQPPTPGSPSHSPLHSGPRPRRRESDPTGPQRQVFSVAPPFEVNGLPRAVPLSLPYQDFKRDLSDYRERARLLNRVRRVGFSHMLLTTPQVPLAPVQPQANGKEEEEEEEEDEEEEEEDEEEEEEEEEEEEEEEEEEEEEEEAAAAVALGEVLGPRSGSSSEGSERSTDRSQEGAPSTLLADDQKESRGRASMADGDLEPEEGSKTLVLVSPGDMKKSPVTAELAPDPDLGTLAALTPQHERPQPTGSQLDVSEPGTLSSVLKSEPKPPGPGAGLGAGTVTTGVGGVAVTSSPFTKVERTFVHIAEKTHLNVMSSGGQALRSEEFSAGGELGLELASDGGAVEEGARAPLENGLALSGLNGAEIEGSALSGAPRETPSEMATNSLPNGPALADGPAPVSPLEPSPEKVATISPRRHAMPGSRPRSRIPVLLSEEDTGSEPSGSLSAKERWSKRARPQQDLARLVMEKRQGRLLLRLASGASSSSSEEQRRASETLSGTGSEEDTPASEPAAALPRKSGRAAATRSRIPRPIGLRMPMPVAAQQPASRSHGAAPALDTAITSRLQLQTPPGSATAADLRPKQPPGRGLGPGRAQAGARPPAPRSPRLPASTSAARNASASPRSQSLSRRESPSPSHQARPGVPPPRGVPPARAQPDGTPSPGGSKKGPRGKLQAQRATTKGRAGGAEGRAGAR
Source text: as §1

[4] = molecular target: T2, TSSK1 (Homo sapiens, UniProt Q9BXA7); assay: Kinase profiling TSSK1; settings: for remaining activity at 100 µM: read-out: residual kinase activity, TSSK1
T2 sequence (Q9BXA7 1-367): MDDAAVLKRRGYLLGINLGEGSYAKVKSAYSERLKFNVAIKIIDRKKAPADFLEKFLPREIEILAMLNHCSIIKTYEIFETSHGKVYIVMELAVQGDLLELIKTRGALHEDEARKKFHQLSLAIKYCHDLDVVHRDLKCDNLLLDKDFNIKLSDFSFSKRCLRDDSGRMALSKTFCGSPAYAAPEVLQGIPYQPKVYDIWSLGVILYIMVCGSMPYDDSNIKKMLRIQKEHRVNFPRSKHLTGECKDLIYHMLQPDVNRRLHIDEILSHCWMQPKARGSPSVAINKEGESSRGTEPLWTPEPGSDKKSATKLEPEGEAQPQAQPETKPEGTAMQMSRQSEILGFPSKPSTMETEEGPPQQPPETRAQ
Source text: as §1

[5] = molecular target: IRAK1 (Homo sapiens, UniProt P51617); assay: Kinase profiling IRAK1; settings: for remaining activity at 100 µM: read-out: residual kinase activity, IRAK1
Chain of IRAK1 (P51617 whole entry, species assumed): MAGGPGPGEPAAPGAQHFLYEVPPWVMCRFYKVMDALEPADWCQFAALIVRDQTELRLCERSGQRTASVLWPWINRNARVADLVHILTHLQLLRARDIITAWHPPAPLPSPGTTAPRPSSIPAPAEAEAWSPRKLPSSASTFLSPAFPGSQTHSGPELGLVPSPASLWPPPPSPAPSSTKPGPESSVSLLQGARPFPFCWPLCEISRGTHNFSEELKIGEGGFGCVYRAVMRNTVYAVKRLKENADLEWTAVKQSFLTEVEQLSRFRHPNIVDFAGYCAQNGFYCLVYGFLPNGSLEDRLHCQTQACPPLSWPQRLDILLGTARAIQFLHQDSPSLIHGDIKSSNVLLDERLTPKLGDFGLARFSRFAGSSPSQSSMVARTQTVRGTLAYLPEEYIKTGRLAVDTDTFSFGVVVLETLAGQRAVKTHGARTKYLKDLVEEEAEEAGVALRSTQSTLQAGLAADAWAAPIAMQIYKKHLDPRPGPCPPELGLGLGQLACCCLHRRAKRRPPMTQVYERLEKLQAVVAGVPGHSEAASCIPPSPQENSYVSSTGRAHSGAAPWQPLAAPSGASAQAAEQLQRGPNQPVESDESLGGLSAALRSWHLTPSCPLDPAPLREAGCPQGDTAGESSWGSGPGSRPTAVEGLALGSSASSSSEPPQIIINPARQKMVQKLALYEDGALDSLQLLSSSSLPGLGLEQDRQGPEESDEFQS
Source text: as §1

[6] = molecular target: IR (Homo sapiens, UniProt P06213); assay: Kinase profiling IR; settings: for remaining activity at 100 µM: read-out: residual kinase activity, IR
Chain of IR (P06213 28-1382): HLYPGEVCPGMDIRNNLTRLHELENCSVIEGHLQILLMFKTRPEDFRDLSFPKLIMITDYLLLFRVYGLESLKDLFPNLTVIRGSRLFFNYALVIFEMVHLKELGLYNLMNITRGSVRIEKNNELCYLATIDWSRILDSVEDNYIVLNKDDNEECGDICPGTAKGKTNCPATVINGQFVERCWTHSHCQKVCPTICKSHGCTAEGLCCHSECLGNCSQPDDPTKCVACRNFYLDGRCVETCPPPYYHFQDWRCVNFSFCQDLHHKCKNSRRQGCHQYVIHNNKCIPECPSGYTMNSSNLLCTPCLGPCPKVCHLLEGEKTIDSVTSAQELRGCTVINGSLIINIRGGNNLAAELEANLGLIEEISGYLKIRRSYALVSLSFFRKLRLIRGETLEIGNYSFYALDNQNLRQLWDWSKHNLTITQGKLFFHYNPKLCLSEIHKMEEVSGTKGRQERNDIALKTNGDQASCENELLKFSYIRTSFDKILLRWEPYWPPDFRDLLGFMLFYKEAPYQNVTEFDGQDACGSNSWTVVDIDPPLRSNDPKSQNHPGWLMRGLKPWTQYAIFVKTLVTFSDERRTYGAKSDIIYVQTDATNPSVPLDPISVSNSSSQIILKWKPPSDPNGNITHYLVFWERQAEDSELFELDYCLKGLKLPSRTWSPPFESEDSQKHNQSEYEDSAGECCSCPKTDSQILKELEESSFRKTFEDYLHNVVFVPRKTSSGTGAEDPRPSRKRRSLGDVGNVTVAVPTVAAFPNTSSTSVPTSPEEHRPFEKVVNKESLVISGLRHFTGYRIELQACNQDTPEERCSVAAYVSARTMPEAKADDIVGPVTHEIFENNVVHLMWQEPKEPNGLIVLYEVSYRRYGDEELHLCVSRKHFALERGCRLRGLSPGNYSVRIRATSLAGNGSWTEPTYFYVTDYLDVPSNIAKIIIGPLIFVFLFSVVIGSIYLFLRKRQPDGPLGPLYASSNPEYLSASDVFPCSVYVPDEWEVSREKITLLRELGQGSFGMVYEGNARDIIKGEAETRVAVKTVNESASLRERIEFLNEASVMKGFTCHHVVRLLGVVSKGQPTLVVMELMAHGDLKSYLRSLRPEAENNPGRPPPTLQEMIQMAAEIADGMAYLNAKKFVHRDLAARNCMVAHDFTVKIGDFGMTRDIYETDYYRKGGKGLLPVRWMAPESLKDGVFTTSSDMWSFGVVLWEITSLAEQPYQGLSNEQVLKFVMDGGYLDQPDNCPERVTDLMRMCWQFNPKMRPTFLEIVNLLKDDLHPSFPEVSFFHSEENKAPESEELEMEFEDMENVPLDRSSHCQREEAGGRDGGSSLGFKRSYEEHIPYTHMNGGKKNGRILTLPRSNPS
Source text: as §1

[7] = molecular target: T3, GCK (Homo sapiens, UniProt Q12851); assay: Kinase profiling GCK; settings: for remaining activity at 100 µM: read-out: residual kinase activity, GCK
T3 sequence (Q12851 1-820): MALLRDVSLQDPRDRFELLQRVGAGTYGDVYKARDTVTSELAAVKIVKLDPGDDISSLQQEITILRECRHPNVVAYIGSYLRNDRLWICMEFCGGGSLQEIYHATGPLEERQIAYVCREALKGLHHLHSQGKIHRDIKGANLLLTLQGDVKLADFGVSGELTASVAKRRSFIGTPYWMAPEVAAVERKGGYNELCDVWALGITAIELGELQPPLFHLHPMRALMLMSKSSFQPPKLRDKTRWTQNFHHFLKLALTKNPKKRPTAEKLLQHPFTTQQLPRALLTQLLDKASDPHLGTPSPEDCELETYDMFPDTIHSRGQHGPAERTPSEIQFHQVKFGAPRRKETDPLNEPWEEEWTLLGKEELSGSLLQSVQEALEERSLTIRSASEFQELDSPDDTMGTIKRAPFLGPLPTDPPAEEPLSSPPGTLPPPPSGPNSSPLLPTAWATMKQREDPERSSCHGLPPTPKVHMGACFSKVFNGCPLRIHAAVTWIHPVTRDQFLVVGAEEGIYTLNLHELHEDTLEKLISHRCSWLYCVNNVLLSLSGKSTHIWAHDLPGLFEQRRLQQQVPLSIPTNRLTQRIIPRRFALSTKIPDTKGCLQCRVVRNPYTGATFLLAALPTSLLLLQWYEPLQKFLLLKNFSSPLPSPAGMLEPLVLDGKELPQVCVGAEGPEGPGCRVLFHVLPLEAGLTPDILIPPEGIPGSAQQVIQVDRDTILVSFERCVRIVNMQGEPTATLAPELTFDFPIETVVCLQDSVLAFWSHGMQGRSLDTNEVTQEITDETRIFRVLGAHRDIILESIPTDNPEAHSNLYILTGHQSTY
Source text: as §1

[8] = system: PHK; assay: Kinase profiling PHK
Source text: as §1

[9] = system: AMPK; assay: Kinase profiling AMPK
Source text: as §1

[10] = molecular target: MPSK1 (Homo sapiens, UniProt O75716); assay: Kinase profiling MPSK1; settings: for remaining activity at 100 µM: read-out: residual kinase activity, MPSK1
Chain of MPSK1 (O75716 whole entry, species assumed): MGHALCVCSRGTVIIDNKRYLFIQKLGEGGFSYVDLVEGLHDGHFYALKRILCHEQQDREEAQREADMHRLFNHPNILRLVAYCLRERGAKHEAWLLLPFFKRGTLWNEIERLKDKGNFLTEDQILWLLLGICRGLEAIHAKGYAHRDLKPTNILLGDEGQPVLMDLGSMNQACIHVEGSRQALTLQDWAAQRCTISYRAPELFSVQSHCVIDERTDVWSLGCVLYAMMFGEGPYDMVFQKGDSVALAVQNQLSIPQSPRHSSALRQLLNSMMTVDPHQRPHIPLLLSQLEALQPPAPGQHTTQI
Source text: as §1

[11] = molecular target: SIK2 (Homo sapiens, UniProt Q9H0K1); assay: Kinase profiling SIK2; settings: for remaining activity at 100 µM: read-out: residual kinase activity, SIK2
Source text: as §1

[12] = molecular target: T4, BRSK1 (Homo sapiens, UniProt Q8TDC3); assay: Kinase profiling BRSK1; settings: for remaining activity at 100 µM: read-out: residual kinase activity, BRSK1
T4 sequence (Q8TDC3 1-778): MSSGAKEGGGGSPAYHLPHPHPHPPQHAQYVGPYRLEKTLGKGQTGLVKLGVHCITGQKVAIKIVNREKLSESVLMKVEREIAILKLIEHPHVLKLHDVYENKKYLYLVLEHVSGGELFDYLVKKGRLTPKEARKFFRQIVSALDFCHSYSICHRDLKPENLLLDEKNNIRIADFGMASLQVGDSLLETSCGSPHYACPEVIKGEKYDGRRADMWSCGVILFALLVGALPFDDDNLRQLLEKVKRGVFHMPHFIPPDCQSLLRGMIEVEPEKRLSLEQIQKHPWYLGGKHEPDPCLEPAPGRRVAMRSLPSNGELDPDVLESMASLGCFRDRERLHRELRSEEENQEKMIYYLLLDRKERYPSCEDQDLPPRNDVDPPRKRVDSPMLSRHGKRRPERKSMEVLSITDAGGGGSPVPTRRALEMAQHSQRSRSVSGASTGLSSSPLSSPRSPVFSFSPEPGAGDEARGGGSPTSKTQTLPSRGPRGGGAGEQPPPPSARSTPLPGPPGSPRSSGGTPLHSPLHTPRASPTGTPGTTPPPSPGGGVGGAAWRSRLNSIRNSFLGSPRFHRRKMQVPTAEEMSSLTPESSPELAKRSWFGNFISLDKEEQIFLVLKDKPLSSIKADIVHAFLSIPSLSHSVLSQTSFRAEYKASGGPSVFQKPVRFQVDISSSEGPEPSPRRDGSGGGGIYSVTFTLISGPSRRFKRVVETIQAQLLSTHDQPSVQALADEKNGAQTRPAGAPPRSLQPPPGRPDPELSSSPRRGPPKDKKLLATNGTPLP
Source text: as §1

[13] = 100 micromolar inhibitor concentration, 100 is no change
[14] = 100 micromolar inhibitor, 100 = no change

SMILES | residual kinase activity, PHK [8, 13] | residual kinase activity, AMPK [9, 13] | remaining activity at 100 µM [1, 13] [%] | remaining activity at 100 µM [2, 13] [%] | remaining activity at 100 µM [3, 13] [%] | remaining activity at 100 µM [4, 13] [%] | remaining activity at 100 µM [5, 13] [%] | remaining activity at 100 µM [6, 13] [%] | remaining activity at 100 µM [7, 13] [%] | remaining activity at 100 µM [10, 13] [%] | remaining activity at 100 µM [11, 13] [%] | remaining activity at 100 µM [12, 13] [%] | residual kinase activity, Aurora A [1, 13] | residual kinase activity, HIPK1 [2, 13] | residual kinase activity, TTBK1 [3, 13] | residual kinase activity, TSSK1 [4, 13] | residual kinase activity, IRAK1 [5, 13] | residual kinase activity, IR [6, 13] | residual kinase activity, GCK [7, 13] | residual kinase activity, MPSK1 [10, 13] | further results
CC(=O)Nc1nc2cc(O)ccc2s1 [Compound 01-66, N-(5-hydroxybenzo[d]thiazol-2-yl)acetamide] | 49 | 61 |  |  |  |  |  |  |  |  |  |  |  |  |  |  |  |  |  |  | remaining activity at 100 µM [1]: 87%; remaining activity at 100 µM [2]: 97%; remaining activity at 100 µM [3]: 68%; remaining activity at 100 µM [4]: 65%; remaining activity at 100 µM [5]: 29%; remaining activity at 100 µM [6]: 63%; remaining activity at 100 µM [7]: 32%; remaining activity at 100 µM [10]: 80%; remaining activity at 100 µM [11]: 56%; remaining activity at 100 µM [12]: 48%
CC(=O)Nc1nc2ccc(O)cc2s1 [Compound 01-71] | 47 | 37 | 68 | 76 | 61 | 67 | 26 | 35 | 19 | 77 | 32 | 16 |  |  |  |  |  |  |  |  | 
CC(=O)Nc1nc2ccc(C(F)(F)F)cc2s1 [Compound 01-90] | 52 | 90 | 81 | 48 | 88 | 90 | 43 | 84 | 15 | 105 | 72 | 83 |  |  |  |  |  |  |  |  | 
CC(=O)Nc1nc2ccc(C#N)cc2s1 [Compound 01-94] | 63 | 73 | 61 | 37 | 73 | 55 | 11 | 81 | 11 | 94 | 70 | 62 |  |  |  |  |  |  |  |  | 
CC(=O)Nc1cccc(NC(=O)c2nc3ccc(O)cc3s2)c1 [Compound 03-07, N-(3-acetamidophenyl)-6-hydroxybenzo[d]thiazole-2-carboxamide] |  |  |  |  |  |  |  |  |  |  |  |  |  |  |  |  |  |  |  |  | remaining activity at 100 µM [1, 14]: 110%; remaining activity at 100 µM [2, 14]: 90%; remaining activity at 100 µM [3, 14]: 93%; remaining activity at 100 µM [4, 14]: 57%; remaining activity at 100 µM [5, 14]: 49%; remaining activity at 100 µM [6, 14]: 66%; remaining activity at 100 µM [7, 14]: 35%; residual kinase activity, PHK [8, 14]: 55; residual kinase activity, AMPK [9, 14]: 76; remaining activity at 100 µM [10, 14]: 108%; remaining activity at 100 µM [11, 14]: 28%; remaining activity at 100 µM [12, 14]: 52%
O=C(Nc1nc2cc(O)ccc2s1)c1ccncc1 [Compound 03-11] | 63 | 84 |  |  |  |  |  |  |  |  |  |  | 106 | 75 | 99 | 97 | 68 | 106 | 33 | 73 | residual kinase activity, SIK2 [11, 13]: 79; residual kinase activity, BRSK1 [12, 13]: 70
O=C(Nc1nc2ccc(O)cc2s1)c1ccccn1 [Compound 03-12] | 37 | 86 |  |  |  |  |  |  |  |  |  |  | 95 | 47 | 91 | 66 | 37 | 27 | 29 | 90 | residual kinase activity, SIK2 [11, 13]: 77; residual kinase activity, BRSK1 [12, 13]: 63
O=C(Nc1nc2cc(O)ccc2s1)c1ccccn1 [Compound 03-13] | 28 | 80 |  |  |  |  |  |  |  |  |  |  | 93 | 76 | 100 | 95 | 38 | 74 | 39 | 102 | residual kinase activity, SIK2 [11, 13]: 96; residual kinase activity, BRSK1 [12, 13]: 95
